In patent US20190290656A1, “PT(IV) PRODRUGS” (YISSUM RESEARCH DEVELOPMENT COMPANY OF THE HEBREW …, priority 2015, published 2019):
Entries after “also recorded” stand apart in the source; their conditions may differ. Read-outs that look alike come from different tables or passages of the source.

Legend:
[1] = test system: Histone deacetylase (HDAC); test: Histone deacetylase assay (Fluor-de-Lys) in MCF-7 cells; assay type: cell-based, human
Experimental: Histone deacetylase activity was determined using Fluor-de-Lys® HDAC fluorometric activity assay kit (Enzo Life Sciences International, Inc., Plymount Meeting, Pa., U.S.A.). […] Fluorescence was measured using a Fluoroskan Ascent FL (Labsystem, Finland) plate reader, with excitation at 360 nm and emission at 460 nm. For comparison purpose, the HDAC activity was also measured in nuclear extracts of MCF-7-treated cells by means of the same fluorometric activity assay kit. In this latter case, MCF-7 nuclear extracts were obtained as follow: cell pellets were re-suspended in lysis buffer [Tris.HCl (10 mM, pH 8.0), KCl (60 mM), EDTA (1.2 mM), DTT (1 mM), PMSF (0.05 mM), NP-40 (0.05%)] and kept on ice for 10 min. Subsequently, samples were centrifuged at 1000 g and re-suspended in the nuclear extraction buffer [Tris.HCl (20 mM, (pH 8.0), NaCl (420 mM), MgCl2 (0.7 mM), EDTA (0.25 mM), glycerol (25%)] for 30 min at 4° C., and then centrifuged at 15000 g for 15 min at 4° C.
The complexes described here were specifically designed to release either VPA of PhB inside the cells in the hope that they will inhibit HDAC activity paving the way for more efficient DNA platination. Thus, in addition to measuring the levels of DNA platination, we also measured the ability of these pro-drugs to inhibit HDAC activity in cells. […] For comparison purposes, the HDAC inhibitory effect determined by tested complexes was also assayed in isolated nuclei of MCF-7 treated cells (FIG. 3B).
The HDAC activity was determined by the Fluor de Lys® Fluorescent Cellular Activity Assay (Enzo Life Sciences).
Also, MCF-7 cells were incubated for 24 h with increasing concentrations of compounds I-VIII and their HDAC activity was determined. The IC50 values for the inhibition of HDAC activity in the cells are depicted in FIG. 3C.

nine cancer cell lines = test: MTT cytotoxicity, over the nine cancer cell lines; conditions: for cytotoxicity IC50 values (in words): uncoordinated ligands
A498 cells = test: MTT cytotoxicity assay, A498; assay type: cell-based, human; conditions: A498, 72 h exposure, read-out: IC50 (median growth inhibitory concentration)
Experimental: (§1) Platinum(IV) complexes were dissolved in DMSO to stock solutions of 1 mg/mL just before the experiment, and a calculated amount of drug solution was added to the cell growth medium to a final solvent concentration of 0.5%, which had no discernible effect on cell killing. Cisplatin (CDDP) and oxaliplatin (OXP) were dissolved just before the experiment in a 0.9% NaCl solution.
(§2) Human prostate adenocarcinoma (PC3) cells were obtained from European Collection of Cell Cultures (ECACC, Salisbury, UK). Human ovarian cancer cell lines A2780 and its cisplatin resistant variant, A2780cisR, were kindly provided by Prof.
(§3) Cancer Res. 1988, 48, 589-601]. […] Triplicate cultures were established for each treatment.

A375 cells = test: MTT cytotoxicity assay, A375; assay type: cell-based, human
Experimental: (§4) Cisplatin (CDDP) and oxaliplatin (OXP) were dissolved just before the experiment in a 0.9% NaCl solution. […]
as §3
(§5) MTT assay. […] Triplicate cultures were established for each treatment.
(§6) The two dimers, 3a and 3b, as well as compounds 1a and 2a were screened against six human cancer cell lines representative of lung (H157), colon (HCT-15), cervical (A431), ovarian (2008) and pancreatic (PSN1) cancers, along with melanoma (A375). Cytotoxicity was evaluated by means of the MTT test after 72 h of treatment and the in vitro antitumor potential of newly synthesized derivatives was compared to that of the reference metallo-drugs CDDP and OXP.

MCF-7 cells = test: MTT cytotoxicity assay, MCF-7; assay type: cell-based, human; conditions: MCF-7, 72 h exposure, MTT; read-out: IC50 (median growth inhibitory concentration)
Experimental: (§7) Cisplatin (CDDP) and oxaliplatin (OXP) were dissolved just before the experiment in a 0.9% NaCl solution.
as §2
(§8) Triplicate cultures were established for each treatment.

A2780 cells = test: MTT cytotoxicity assay, A2780; assay type: cell-based, human; conditions: A2780, 72 h exposure, MTT; read-out: IC50 (median growth inhibitory concentration)
Experimental: as §1, §2, §3

BxPC3 cells = test: MTT cytotoxicity assay, BxPC3; assay type: cell-based, human; conditions: BxPC3, 72 h exposure, MTT; read-out: IC50 (median growth inhibitory concentration)
PC3 cells = test: MTT cytotoxicity assay, PC3; assay type: cell-based, human; conditions: PC3, 72 h exposure, read-out: IC50 (median growth inhibitory concentration)
Experimental: as §7, §2, §8

HCT-15 cells = test: MTT cytotoxicity assay, HCT-15; assay type: cell-based, human
Experimental: as §4, §3, §5, §6

A2780cisR cells = test: MTT cytotoxicity assay, A2780cisR (cisplatin resistant); assay type: cell-based, human; conditions: for IC50: 72 h exposure, MTT, read-out: IC50 (median growth inhibitory concentration); for resistance factor: ratio IC50 resistant (A2780cisR) / sensitive (A2780) cells
Experimental: as §1, §2, §3

A549 cells = test: MTT cytotoxicity assay, A549; assay type: cell-based, human; conditions: A549, 72 h exposure, MTT; read-out: IC50 (median growth inhibitory concentration)
Experimental: as §7, §2, §8

HCT-15 spheroids = test: 3D spheroid APH assay, HCT-15; assay type: cell-based, human; conditions: HCT-15 spheroids, 72 h, APH test
Excerpt: (§9) Acid phosphatase (APH) assay. A modified APH assay, which is based on quantification of cytosolic acid phosphatase activity, was used for determining cell viability in spheroids. […] Triplicate cultures were established for each treatment. […] Evaluation was based on means from at least four independent experiments.
(§10) In order to improve the predictive capacity of the in vitro assays, we tested the activity in three three-dimensional (3D) cell cultures; human colon cancer cells, HCT-15, and human pancreatic cancer cells, KRAS wild type BxPC3 cells KRAS mutated PSN-1 cells. The cancer spheroids were treated with 3a and 3b for 72 h and the cell viability was assessed by means of the APH assay (Table 6). For comparison purposes, the cytotoxicities of CDDP and OXP were evaluated under the same experimental conditions.

[2] = test system: human embryonic kidney HEK293 cells; test: MTT cytotoxicity against non-tumor cells; assay type: cell-based
Experimental: as §5
The cytotoxic activity of derivatives 3a and 3b was also evaluated against non-tumor cells, namely human embryonic kidney HEK293 cells (Table 7). Both compounds 3a and 3b were more cytotoxic than CDDP.

H157 cells = test: MTT cytotoxicity assay, H157; assay type: cell-based, human; conditions: H157, 72 h
Experimental: as §5, §6

BxPC3 spheroids = test: 3D spheroid APH assay, BxPC3; assay type: cell-based, human; conditions: 72 h, APH test
Excerpt: as §9, §10

A431 cells = test: MTT cytotoxicity assay, A431; assay type: cell-based, human; conditions: A431, 72 h
Experimental: as §5, §6

PSN1 cells = test: MTT cytotoxicity assay, PSN1; assay type: cell-based, human; conditions: PSN1, 72 h, MTT
Experimental: as §5, §6

PSN-1 spheroids = test: 3D spheroid APH assay, PSN-1; assay type: cell-based, human; conditions: PSN-1 spheroids, 72 h, APH test
Excerpt: as §9, §10

2008 cells = test: MTT cytotoxicity assay, 2008; assay type: cell-based, human; conditions: 2008, 72 h, MTT
Experimental: as §5, §6

[3] = A375, 72 h exposure, MTT (Table 1), read-out: IC50 (median growth inhibitory concentration)
[4] = HCT-15, 72 h exposure, MTT (Table 1), read-out: IC50 (median growth inhibitory concentration)
[5] = read-out: average IC50 values for the nine cancer cell lines, mean over nine cell lines, 72 h MTT
[6] = A375, 72 h, MTT (Table 5), read-out: IC50 (μM) ± S.D.
[7] = HCT-15, 72 h, MTT (Table 5), read-out: IC50 (μM) ± S.D.

Compound | IC50 (A498 cells) | IC50 (A375 cells; [3]) | IC50 (MCF-7 cells) | IC50 (A2780 cells) | IC50 (BxPC3 cells) | IC50 (PC3 cells) | IC50 (HCT-15 cells; [4]) | IC50 (A2780cisR cells; A2780cisR) | IC50 (nine cancer cell lines; [5]) | IC50 (A549 cells) | IC50 (A375 cells; [6]) | IC50 (HCT-15 cells; [7]) | IC50 (A431 cells) | IC50 (PSN1 cells) | also measured
O=C(O)CCCc1ccccc1 [Compound 4-PB, 4-phenylbutyric acid, reference compound] | – | – | – | – | – | – | – | – | – | – | – | – | – | – | IC50 for cellular inhibition of HDAC activity (in words) ([1]; MCF-7, 24 h, increasing concentrations): significantly higher; cytotoxicity IC50 values (in words) (nine cancer cell lines; listed as PhB): millimolar range; also recorded: mM range
C1CCNCC1.CCCC(CCC)C(=O)[O][Pt]([OH])([Cl])[Cl].CCCCN [Compound V, trans-[Pt(n-butylamine)(VPA)(OH) (piperidine) Cl2]] | 8.64 ± 0.95 µM | 12.4 ± 2.93 µM | 8.8 ± 1.48 µM | 1180 ± 330 nM | 4.43 ± 1.94 µM | 16.8 ± 1.41 µM | 14.4 ± 2.05 µM | 1290 ± 290 nM | 9.27 µM | 15.5 ± 1.13 µM | – | – | – | – | fold more potent/effective than cisplatin (A2780cisR cells; A2780cisR): roughly 11 fold; resistance factor (A2780cisR cells): 1.1
CCCC(CCC)C(=O)[O][Pt]12([O]C(=O)C(CCC)CCC)([NH]C3CCCCC3[NH]1)[O]C(=O)C(=O)[O]2 (centres unmarked) [III, [Pt(DACH)(C8H15O2)2(ox)]] | 5.21 ± 1.1 µM | 4.17 ± 0.87 µM | 5.7 ± 0.9 µM | 1300 ± 200 nM | 14.4 ± 2.16 µM | 10.1 ± 1.17 µM | 16.4 ± 1.63 µM | 8800 ± 2100 nM | – | 20.5 ± 2.14 µM | – | – | – | – | resistance factor (A2780cisR cells): 6.8
CC(/C=C/C(=O)NO)=C\[C@@H](C)C(=O)c1ccc(N(C)C)cc1 [TSA, trichostatin A] | – | – | – | – | – | – | – | – | – | – | – | – | – | – | inhibition of HDAC activity ([1]; MCF-7, 24 h incubation with IC50 concentrations): about 90%
CC(=O)[O][Pt]([NH2])([NH2])([Cl])([Cl])[O]C(=O)CCCc1ccccc1 [VII, Ctc-[Pt(NH3)2(C2H3O2)(C10H11O2)Cl2]] | 8.42 ± 1.47 µM | 6.25 ± 1.94 µM | 3.43 ± 0.14 µM | 650 ± 40 nM | 10.1 ± 1.69 µM | 4.34 ± 1.25 µM | 5.17 ± 0.85 µM | 1540 ± 270 nM | 4.8 µM | 7.16 ± 1.11 µM | – | – | – | – | factors more potent than cisplatin (nine cancer cell lines; in five out of the nine cell lines): 2.1-9 fold; IC50 (nine cancer cell lines; read-out: range of IC50 values over the cell lines, lowest-highest over nine cell lines): 0.65 to 10.1 µM
O=C(CCCc1ccccc1)[O][Pt]12([O]C(=O)CCCc3ccccc3)([NH]C3CCCCC3[NH]1)[O]C(=O)C(=O)[O]2 (centres unmarked) [VIII, [Pt(DACH)(C10H11O2)2(ox)]] | 9.32 ± 1.07 µM | 0.64 ± 0.13 µM | 2.28 ± 0.46 µM | 900 ± 80 nM | 7.64 ± 1.15 µM | 6.35 ± 1.19 µM | 12.5 ± 1.13 µM | 1960 ± 440 nM | 6.81 µM | 19.6 ± 3.22 µM | – | – | – | – | –
CCCC(CCC)C(=O)O [VPA, valproic acid, reference compound] | – | – | – | – | – | – | – | – | – | – | – | – | – | – | IC50 ([1]; MCF-7, 24 h, increasing concentrations, read-out: IC50 for cellular inhibition of HDAC activity): ~8 mM; cytotoxicity IC50 values (in words) (nine cancer cell lines): millimolar range; also recorded: mM range
Cc1c(C)c2c3c4c1=CC=C[N]4[Pt+2][N]3C=CC=2.N[C@H]1CCCC[C@@H]1N [[Pt(DACH)(56Phen)], reference compound] | – | – | – | – | – | – | – | – | – | – | 1.12 ± 0.42 µM | 0.69 ± 0.11 µM | 0.28 ± 0.08 µM | 0.25 ± 0.08 µM | IC50 (HCT-15 spheroids): 60.2 ± 2.92 µM; IC50 ([2]; HEK293 non-tumor cells, 72 h, MTT): 1.12 ± 0.87 µM; SI (selectivity index) ([2]; ratio between average IC50 of non-tumor cells and IC50 of malignant cells): 0.9; IC50 (H157 cells): 0.16 ± 0.01 µM; IC50 (BxPC3 spheroids): 100 ± 12.1 µM; IC50 (PSN-1 spheroids): 55.5 ± 9.75 µM; IC50 (2008 cells): 0.74 ± 0.12 µM
c,c,t-[Pt(DACH)(56Phen)(PhBu)(Succ)]Cl2 [Compound 2a] | – | – | – | – | – | – | – | – | – | – | 1.57 ± 0.16 µM | 6.25 ± 3.08 µM | 4.15 ± 1.12 µM | 3.23 ± 1.12 µM | –
c,c,t-[Pt(NH3)2Cl2(DCA)(GABA)](TFA) [Compound 1a] | – | – | – | – | – | – | – | – | – | – | 2.81 ± 0.21 µM | 12.5 ± 3.58 µM | 4.98 ± 1.63 µM | 4.74 ± 2.87 µM | –
